Measured values reported in US10316017B2, “COT modulators and methods of use thereof” (Gilead Sciences, Inc., priority 2015, dated 2019).

Assays:
[1] = tested on: TNFα production in LPS-stimulated human monocytes; assay: Cot Monocyte TNFα Cell Based Assay; conditions: Homo sapiens, Monocyte, LPS-stimulated human monocytes, TNFα TR-FRET; read-out: EC50 TNF
How it was run: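 Human monocytes (5,000 cells/well) pretreated with compound for 1 hour at 37° C (0.5% DMSO), then stimulated with 50 pg/ml LPS for 4 hours. Total TNFα measured by TR-FRET after overnight antibody incubation at room temp, expressed as percent of control between unstimulated and stimulated cells.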

[2] = target: T1, human Cot catalytic domain (30-397 amino acids) (Homo sapiens, UniProt P41279); assay: High Throughput Cot Biochemical Assay (KinEASE TR-FRET); conditions: Cot KinEASE TR-FRET, 400 μM ATP; read-out: IC50 HTRF
T1 construct: Purified recombinant human Cot catalytic domain (30-397 amino acids) was purchased from Cama Biosciences; purchased Cama Biosciences (so in the source)
T1 sequence (P41279 30-397): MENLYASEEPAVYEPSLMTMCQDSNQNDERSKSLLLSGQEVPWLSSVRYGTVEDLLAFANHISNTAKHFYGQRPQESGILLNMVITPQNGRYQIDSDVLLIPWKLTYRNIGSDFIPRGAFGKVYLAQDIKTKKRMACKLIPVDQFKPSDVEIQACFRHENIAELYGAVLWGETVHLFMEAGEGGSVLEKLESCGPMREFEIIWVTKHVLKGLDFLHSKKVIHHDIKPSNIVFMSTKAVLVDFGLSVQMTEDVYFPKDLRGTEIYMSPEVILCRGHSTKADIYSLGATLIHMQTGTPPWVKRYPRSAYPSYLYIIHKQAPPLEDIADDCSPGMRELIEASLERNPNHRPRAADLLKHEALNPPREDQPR
How it was run: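 Recombinant human Cot catalytic domain (aa 30-397), 5 nM, with 1 μM STK3 peptide and 400 μM ATP in MOPS pH 7.0 buffer with MgOAc, DTT, BSA, NP-40, glycerol, 0.1% DMSO. Phosphorylated XL665-peptide detected by Eu-[…] antibody TR-FRET.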

Row | Structure (SMILES) | EC50 [1] [nM] | IC50 [2] [nM]
1 | CC(C)(C)CNc1c(C#N)cnc2c(Cl)cc(N[C@H](c3cn(C4(C(F)(F)F)CC4)nn3)c3cccc(C(N)=O)c3F)cc12 [Example 1115, (S)-3-(((8-chloro-3-cyano-4-(neopentylamino)quinolin-6-yl)amino)(1-(1-(trifluoromethyl)cyclopropyl)-1H-1,2,3-triazol-4-yl)methyl)-2-fluorobenzamide] | 176 | 6
2 | CNC(=O)c1cc([C@H](Nc2cc(Cl)c3ncc(C#N)c(NCC(C)(C)C)c3c2)c2cn(C3(C(F)(F)F)CC3)nn2)ccc1F [Example 1116, (S)-5-(((8-chloro-3-cyano-4-(neopentylamino)quinolin-6-yl)amino)(1-(1-(trifluoromethyl)cyclopropyl)-1H-1,2,3-triazol-4-yl)methyl)-2-fluoro-N-methylbenzamide] | ≥ 1000 | 38
3 | CC(C)(C)CNc1c(C#N)cnc2c(Cl)cc(N[C@@H](c3ccc(F)c(C(N)=O)c3)c3cn(C4(C(F)(F)F)CC4)nn3)cc12 [Example 1117, (S)-5-(((8-chloro-3-cyano-4-(neopentylamino)quinolin-6-yl)amino)(1-(1-(trifluoromethyl)cyclopropyl)-1H-1,2,3-triazol-4-yl)methyl)-2-fluorobenzamide] | 561 | 29
4 | Cc1c(-c2ccccn2)cccc1[C@H](Nc1cc(Cl)c2ncc(C#N)c(NCC(C)(C)C)c2c1)c1cn(C2(C(F)(F)F)CC2)nn1 [Example 1118, (S)-8-chloro-6-(((2-methyl-3-(pyridin-2-yl)phenyl)(1-(1-(trifluoromethyl)cyclopropyl)-1H-1,2,3-triazol-4-yl)methyl)amino)-4-(neopentylamino)quinoline-3-carbonitrile] | 921 | 28
5 | Cc1c(-c2cn(C)cn2)cccc1[C@H](Nc1cc(Cl)c2ncc(C#N)c(NCC(C)(C)C)c2c1)c1cn(C2(C(F)(F)F)CC2)nn1 [Example 1119, (S)-8-chloro-6-(((2-methyl-3-(1-methyl-1H-imidazol-4-yl)phenyl)(1-(1-(trifluoromethyl)cyclopropyl)-1H-1,2,3-triazol-4-yl)methyl)amino)-4-(neopentylamino)quinoline-3-carbonitrile] | 351 | 11
6 | Cc1c(-c2cncn2C)cccc1[C@H](Nc1cc(Cl)c2ncc(C#N)c(NCC(C)(C)C)c2c1)c1cn(C2(C(F)(F)F)CC2)nn1 [Example 1120, (S)-8-chloro-6-(((2-methyl-3-(1-methyl-1H-imidazol-5-yl)phenyl)(1-(1-(trifluoromethyl)cyclopropyl)-1H-1,2,3-triazol-4-yl)methyl)amino)-4-(neopentylamino)quinoline-3-carbonitrile] | 88 | 6
7 | Cc1c(-c2ccnnc2)cccc1[C@H](Nc1cc(Cl)c2ncc(C#N)c(NCC(C)(C)C)c2c1)c1cn(C2(C(F)(F)F)CC2)nn1 [Example 1121, (S)-8-chloro-6-(((2-methyl-3 (pyridazin-4-yl)phenyl)(1-(1-(trifluoromethyl)cyclopropyl)-1H-1,2,3-triazol-4-yl)methyl)amino)-4-(neopentylamino)quinoline-3-carbonitrile] | 59 | 2
8 | Cc1c(-c2cncn2C)cccc1[C@H](Nc1cc(Cl)c2ncc(C#N)c(NCC(C)(C)C)c2c1)c1cn(C2(C(F)F)CC2)nn1 [Example 1122, (S)-8-chloro-6-(((1-(1-(difluoromethyl)cyclopropyl)-1H-1,2,3-triazol-4-yl)(2-methyl-3-(1-methyl-1H-imidazol-5-yl)phenyl)methyl)amino)-4-(neopentylamino)quinoline-3-carbonitrile] | 47 | 2
9 | Cc1c(-c2ccnnc2)cccc1[C@H](Nc1cc(Cl)c2ncc(C#N)c(NCC(C)(C)C)c2c1)c1cn(C2(C(F)F)CC2)nn1 [Example 1123, (S)-8-chloro-6-(((1-(1-(difluoromethyl)cyclopropyl)-1H-1,2,3-triazol-4-yl)(2-methyl-3-(pyridazin-4-yl)phenyl)methyl)amino)-4-(neopentylamino)quinoline-3-carbonitrile] | 42 | 2
